In general, Inhibition refers to the change of the read-out against control, counted positive when it falls. Low readings indicate little suppression, high ones strong suppression.

Converted amounts (≈) assume the structure as drawn. The source made the active and inactive calls. The rule behind the calls is not given here.

Assay [1] concerns KB. Briefly: Cytotoxicity against human epidermoid carcinoma of the nasopharynx(KB) cell lines. The settings on record: read-out: ED50 (the source's name). The class given is functional.
For assay [2], the system named is CAKI-1. Briefly: Cytotoxicity against human renal cancer(CAKI-1) cell lines. The class given is functional. The settings on record: read-out: ED50 (the source's name).
For assay [3], the system named is HCT-8. Briefly: Cytotoxicity against human ileocecal carcinoma (HCT-8) cell lines. The settings on record: read-out: ED50 (the source's name). Format: functional.
Assay [4] concerns A549. As to the kind of experiment: Cytotoxicity against human lung carcinoma (A549) cell lines; Not active. Format: functional, cell-based.
In assay [5] the test system is 1A9. Briefly: Cytotoxicity against human ovarian cancer (1A9) cell lines. Format: functional. The settings on record: read-out: ED50 (the source's name).
Assay [6] has as its system MCF7. Briefly: Cytotoxicity against human breast cancer(MCF-7) cell lines. As to conditions: read-out: ED50 (the source's name). The class given is functional.
Assay [7] concerns SAOS-2. As to the kind of experiment: Percentage inhibition of human osteosarcoma (SaOS-2) cell lines. Format: functional.
The subject of assay [8] is SAOS-2. Briefly: Cytotoxicity against human osteosarcoma (SaOS-2) cell lines. The settings on record: read-out: ED50 (the source's name). Format: functional.
The subject of assay [9] is A549. Briefly: Cytotoxicity against human lung carcinoma (A549) cell lines. The class given is functional. The settings on record: read-out: ED50 (the source's name).
Assay [10] has as its system CAKI-1. Briefly: Cytotoxicity against human renal cancer(CAKI-1) cell lines; […]. The class given is functional, cell-based.
The subject of assay [11] is 1A9. As to the kind of experiment: Percentage inhibition of human ovarian cancer (1A9) cell lines. Format: functional.
The test system of assay [12] is MCF7. Briefly: Percentage inhibition of human breast cancer(MCF-7) cell lines. Format: functional.
Assay [13] deals with KB. Briefly: Percentage inhibition of human epidermoid carcinoma of the nasopharynx(KB) cell lines. The class given is functional.
The subject of assay [14] is A549. As to the kind of experiment: Percentage inhibition of human lung carcinoma (A549) cell lines. Format: functional.
Assay [15] relates to CAKI-1. Briefly: Percentage inhibition of human renal cancer(CAKI-1) cell lines. Format: functional.
Assay [16] concerns HCT-8. As to the kind of experiment: Percentage inhibition human ileocecal carcinoma (HCT-8) cell lines. The class given is functional.

Take `CC(=O)Oc1ccc([C@H]2c3c(OC(C)=O)cc(OC(C)=O)cc3[C@H]3c4c(cc(OC(C)=O)cc4[C@@H]2OC(C)=O)O[C@@H]3c2ccc(OC(C)=O)cc2)cc1`: the EC50 in the assay with KB [1] is 0.6 µg/mL (≈ 0.83 µM); with CAKI-1 [2], 4 µg/mL (≈ 5.53 µM); in the assay with HCT-8 [3] it was 4.1 µg/mL (≈ 5.67 µM); with 1A9 [5], 0.7 µg/mL (≈ 0.969 µM); in the assay on MCF7 [6], 2 µg/mL (≈ 2.77 µM). The ED50 result with A549 [4] is “inactive”.

In turn, `Oc1ccc([C@@H]2c3c(O)cc(O)cc3[C@@H]3c4c(cc(O)cc4[C@H]2[C@@H]2c4cc(O)cc5c4[C@@H](c4cc(O)cc(O)c4[C@H]2c2ccc(O)cc2)[C@H](c2ccc(O)cc2)O5)O[C@H]3c2ccc(O)cc2)cc1` displayed an Inhibition in the assay with SAOS-2 [7] of 41%. Further, the EC50 was more than 20 µg/mL in the assay on SAOS-2 [8]; 1.2 µg/mL (≈ 1.32 µM) in the assay with KB [1]; 4.8 µg/mL (≈ 5.29 µM) with A549 [9]; 7.8 µg/mL (≈ 8.6 µM) in the assay with 1A9 [5]; 4.2 µg/mL (≈ 4.63 µM) with MCF7 [6]. The ED50 entry in the assay on CAKI-1 [10] is “inactive”.

As to `CC(=O)Oc1ccc(/C=C/c2cc(OC(C)=O)cc3c2[C@H](c2cc(OC(C)=O)cc(OC(C)=O)c2)[C@@H](c2ccc(OC(C)=O)cc2)O3)cc1`, the EC50 with SAOS-2 [8] is 7.5 µg/mL (≈ 11.3 µM); in the assay with KB [1], 7.5 µg/mL (≈ 11.3 µM); with A549 [9] it was 20 µg/mL (≈ 30.1 µM); in the assay with 1A9 [5], 5.8 µg/mL (≈ 8.73 µM); in the assay with MCF7 [6], 4 µg/mL (≈ 6.02 µM). For the same molecule, in the assay with CAKI-1 [10], the ED50 entry was “inactive”.

`Oc1ccc([C@H]2c3c(O)cc(O)cc3[C@H]3c4c(cc(O)cc4[C@@H]2O)O[C@@H]3c2ccc(O)cc2)cc1` [AMPELOPSIN A]: the Inhibition in the assay with SAOS-2 [7] came out at 8%; with 1A9 [11], 32%; in the assay on MCF7 [12] it was 10%; with KB [13], 38%; with A549 [14] it was 7%; with CAKI-1 [15] it was 38%. Moreover, the EC50 in the assay with SAOS-2 [8], in the assay on KB [1], in the assay with A549 [9], in the assay with CAKI-1 [2], in the assay on 1A9 [5] and with MCF7 [6] was more than 20 µg/mL in each case.

In the case of `CC(=O)Oc1ccc([C@@H]2c3c(OC(C)=O)cc(OC(C)=O)cc3[C@@H]3c4c(OC(C)=O)cc(OC(C)=O)cc4C2[C@H]3c2ccc(OC(C)=O)cc2)cc1`, the Inhibition is listed as 43% with MCF7 [12], 36% in the assay on HCT-8 [16] and 21% in the assay on CAKI-1 [15]. In addition, the EC50 is 3 µg/mL (≈ 4.25 µM) with KB [1]; more than 10 µg/mL in the assay on CAKI-1 [2]; more than 10 µg/mL in the assay with HCT-8 [3]; 6 µg/mL (≈ 8.49 µM) with 1A9 [5]; more than 10 µg/mL with MCF7 [6]. In addition, in the assay with A549 [4], the ED50 entry is “inactive”.

Take `CC(=O)Oc1ccc([C@@H]2c3c(OC(C)=O)cc(OC(C)=O)cc3[C@H]3[C@H](c4ccc(OC(C)=O)cc4)c4c(OC(C)=O)cc(OC(C)=O)cc4[C@@H]23)cc1`: the EC50 in the assay with KB [1] was 1.6 µg/mL (≈ 2.26 µM); with CAKI-1 [2] it was 8 µg/mL (≈ 11.3 µM); with HCT-8 [3], 8 µg/mL (≈ 11.3 µM); with 1A9 [5], 3.2 µg/mL (≈ 4.53 µM); with MCF7 [6], 7.4 µg/mL (≈ 10.5 µM). In the assay with A549 [4], the ED50 entry was “inactive”.

(Values after ChEMBL document CHEMBL1131861, “Antitumor agents 200. Cytotoxicity of naturally occurring resveratrol oligomers and their acetate derivatives” (1999).)
